Legend:
[1] = test system: healthy, nondependent, recreational stimulant users with intranasal insufflation experience; assay: Treatment-emergent adverse events, intranasal study (Example 5, Table 54)
Procedure: The study consisted of a Screening Period, an in-clinic Drug Discrimination Phase, a Treatment Phase, and a Follow-Up Visit.
All subjects were required to fast for at least 8 hours prior to each dose of study drug until approximately 4 hours after each dose. Abuse potential measures and pharmacokinetic samples were collected at different times after the administration of study drug. Subjects who successfully completed the Drug Discrimination Phase and who qualified for the Treatment Phase remained as inpatients to enter the Treatment Phase.

[2] = test system: healthy, nondependent, recreational stimulant users with intranasal insufflation experience; assay: Intranasal abuse potential, VAS pharmacodynamic scores (Example 5); assay type: in vivo, human; conditions: SDX Cl 80 mg
Procedure: Subjects who successfully completed the Screening Period returned to the clinic to complete the Drug Discrimination Phase. The Drug Discrimination Test was performed to ensure that subjects can differentiate between the effects of a single dose of d-methylphenidate hydrochloride and placebo, administered intranasally. Subjects who successfully completed the Drug Discrimination Phase remained as inpatients to enter the Treatment Phase. The Drug Discrimination Phase was a double-blind, intranasal, single-dose, 2-treatment, 2-period, 2-sequence, randomized, crossover design.
The placebo dose consisted of 80 mg of microcrystalline cellulose to create the same volume.
On dosing days in the Treatment Phase, blood samples were collected for the measurement of the plasma concentrations of SDX, d-methylphenidate (d-MPH), l-methylphenidate (l-MPH) and ritalinic acid at predose and at 0.25, 0.5, 0.75, 1, 1.5, 2, 3, 4, 5, 6, 7, 8, 9, 10, 12, 16, 24, 36, and 48 hours±5 minutes after each dose of study drug. […] All VAS pharmacodynamic assessments except Take Drug Again and Overall Drug Liking were performed at 0.25, 0.5, 0.75, 1, 1.5, 2, 3, 4, 5, 6, 7, 8, 10, 12, 24 hours±5 minutes postdose. In addition, predose assessments of Feeling High, and Drowsiness/Alertness were collected. The Take Drug Again and Overall Drug Liking VAS assessments were performed at 12 and 24 hours±5 minutes postdose.

[3] = test system: recreational stimulant users; assay: Treatment-emergent adverse events, intravenous study (Example 2); conditions: SDX Cl 30 mg (N=31), d-MPH HCl 15 mg (N=30)
Procedure: A study was conducted in humans to assess the intravenous abuse potential of serdexmethylphenidate relative to unconjugated d-methylphenidate and placebo in recreational stimulant abusers. This was a Phase 1, randomized, double-blind study in which serdexmethylphenidate and d-methylphenidate were administered intravenously in recreational stimulant users with a history of non-oral abuse. In Part A of the study, subjects (Cohort 1) participated in a dose-escalation phase to determine the optimal dose of intravenous d-methylphenidate based on tolerability and abuse-related pharmacodynamic assessments. […] The doses of serdexmethylphenidate and d-methylphenidate are equivalent with respect to molar amount of d-methylphenidate. FDA-recommended abuse potential measures and blood samples were collected at different times after dosing. Safety assessments were performed throughout the study.

[4] = d-MPH HCl 40 mg (N = 46), SDX Cl 80 mg (N = 46)
[5] = d-MPH HCl 40 mg, 12 hours, bipolar VAS
[6] = d-MPH HCl 40 mg, 24 hours, bipolar VAS

COC(=O)[C@H](c1ccccc1)[C@H]1CCCCN1C(=O)OC[n+]1cccc(C(=O)N[C@@H](CO)C(=O)O)c1.[Cl-] [serdexmethylphenidate chloride]
nasal discomfort, nasal congestion, rhinorrhoea, epistaxis, increased lacrimation, frequency vs intranasal d-MPH HCl ([1]; SDX Cl 80 mg vs d-MPH HCl 40 mg): occurred more often | TEAE: Back pain [1, 4]: 0 n (%) [E] | TEAE: Blood pressure diastolic increased [1, 4]: 0 n (%) [E] | TEAE: Bruxism [1, 4]: 0 n (%) [E] | TEAE: Change in sustained attention [1, 4]: 0 n (%) [E] | TEAE: Chest discomfort [1, 4]: 0 n (%) [E] | TEAE: Decreased appetite [1, 4]: 0 n (%) [E] | TEAE: Defaecation urgency [1, 4]: 0 n (%) [E] | TEAE: Dry mouth [1, 4]: 0 n (%) [E] | TEAE: Dry throat [1, 4]: 0 n (%) [E] | TEAE: Dysmenorrhoea (menstrual cramps) [1, 4]: 0 n (%) [E] | TEAE: Dyspepsia [1, 4]: 0 n (%) [E] | TEAE: Energy increased [1, 4]: 0 n (%) [E] | TEAE: Eye irritation [1, 4]: 0 n (%) [E] | TEAE: Feeling hot [1, 4]: 0 n (%) [E] | TEAE: Flushing [1, 4]: 0 n (%) [E] | TEAE: Haematoma [1, 4]: 0 n (%) [E] | TEAE: Hypopnoea (shallow breathing) [1, 4]: 0 n (%) [E] | TEAE: Infections and infestations [1, 4]: 0 n (%) [E] | TEAE: Investigations [1, 4]: 0 n (%) [E] | TEAE: Metabolism and nutrition disorders [1, 4]: 0 n (%) [E] | TEAE: Muscle tightness [1, 4]: 0 n (%) [E] | TEAE: Muscle twitching [1, 4]: 0 n (%) [E] | TEAE: Neck pain [1, 4]: 0 n (%) [E] | TEAE: Obsessive-compulsive disorder [1, 4]: 0 n (%) [E] | TEAE: Peripheral swelling [1, 4]: 0 n (%) [E] | TEAE: Pharyngeal hypoaesthesia (numbness of throat) [1, 4]: 0 n (%) [E] | TEAE: Pharyngitis [1, 4]: 0 n (%) [E] | TEAE: Phlebitis superficial [1, 4]: 0 n (%) [E] | TEAE: Phonophobia (fear of loud noises) [1, 4]: 0 n (%) [E] | TEAE: Photophobia [1, 4]: 0 n (%) [E] | TEAE: Pyrexia [1, 4]: 0 n (%) [E] | TEAE: Reproductive system and breast disorders [1, 4]: 0 n (%) [E] | TEAE: Restlessness [1, 4]: 0 n (%) [E] | TEAE: Sinus tachycardia [1, 4]: 0 n (%) [E] | TEAE: Tachycardia [1, 4]: 0 n (%) [E] | TEAE: Testis discomfort [1, 4]: 0 n (%) [E] | TEAE: Vascular disorders [1, 4]: 0 n (%) [E] | TEAE: Ventricular extrasystoles [1, 4]: 0 n (%) [E] | TEAE: Vessel puncture site bruise [1, 4]: 0 n (%) [E] | TEAE: Vessel puncture site pain [1, 4]: 0 n (%) [E] | TEAE: Visual impairment [1, 4]: 0 n (%) [E] | TEAE: Vomiting [1, 4]: 0 n (%) [E] | Mean difference Drug Liking Emax vs placebo [2]: 19.9 | Mean difference Overall Drug Liking vs placebo, 12 hours [2]: 10.3 | Mean difference Overall Drug Liking vs placebo, Emax [2]: 11.5 | Mean difference Any Effect Emax vs placebo ([2]; d-MPH HCl 40 mg): 48.8 | Mean difference Ease of Nasal Insufflation Emax vs placebo ([2]; d-MPH HCl 40 mg): 59.0 | Mean difference Feeling Drowsy/Alert Emax vs placebo ([2]; d-MPH HCl 40 mg): 20.1 | Mean difference Feeling High Emax vs placebo ([2]; d-MPH HCl 40 mg): 40.7 | Mean difference Good Effects Emax vs placebo ([2]; d-MPH HCl 40 mg): 44.2 | Mean difference Overall Drug Liking vs placebo, 24 hours ([2]; d-MPH HCl 40 mg): 8.8 | Mean difference Take Drug Again vs placebo, 12 hours ([2]; d-MPH HCl 40 mg): 7.6 | Mean difference Take Drug Again vs placebo, 24 hours ([2]; d-MPH HCl 40 mg): 6.7 | Mean difference Take Drug Again vs placebo, Emax ([2]; d-MPH HCl 40 mg): 10.8 | Median difference Bad Effects Emax vs placebo ([2]; d-MPH HCl 40 mg): 9.5 | Mean Overall Drug Liking [2, 5]: 60.4 | Mean Take Drug Again [2, 5]: 56.7 | Median Overall Drug Liking [2, 5]: 58 | Median Take Drug Again [2, 5]: 51 | Mean Overall Drug Liking [2, 6]: 59.0 | Mean Take Drug Again [2, 6]: 55.8 | Median Overall Drug Liking [2, 6]: 55 | Median Take Drug Again [2, 6]: 50 | Drug Liking Emax (mean) ([2]; d-MPH HCl 40 mg, bipolar VAS): 71.0 | Drug Liking Emax (median) ([2]; d-MPH HCl 40 mg, bipolar VAS): 71 | Feeling Drowsy/Alert Emax (mean) ([2]; d-MPH HCl 40 mg, bipolar VAS): 71.2 | Feeling Drowsy/Alert Emax (median) ([2]; d-MPH HCl 40 mg, bipolar VAS): 71 | Overall Drug Liking Emax (mean) ([2]; d-MPH HCl 40 mg, bipolar VAS): 61.8 | Overall Drug Liking Emax (median) ([2]; d-MPH HCl 40 mg, bipolar VAS): 58 | Take Drug Again Emax (mean) ([2]; d-MPH HCl 40 mg, bipolar VAS): 60.0 | Take Drug Again Emax (median) ([2]; d-MPH HCl 40 mg, bipolar VAS): 56 | Drug Liking Emax (mean) ([2]; d-MPH HCl 40 mg, bipolar VAS, listed as SDX chloride): 71 | Any Effect Emax (mean) ([2]; d-MPH HCl 40 mg, unipolar VAS): 49.4 | Any Effect Emax (median) ([2]; d-MPH HCl 40 mg, unipolar VAS): 47 | Bad Effects Emax (mean) ([2]; d-MPH HCl 40 mg, unipolar VAS): 14.9 | Bad Effects Emax (median) ([2]; d-MPH HCl 40 mg, unipolar VAS): 1 | Ease of Nasal Insufflation (mean) ([2]; d-MPH HCl 40 mg, unipolar VAS): 65.8 | Ease of Nasal Insufflation (median) ([2]; d-MPH HCl 40 mg, unipolar VAS): 71 | Feeling High Emax (mean) ([2]; d-MPH HCl 40 mg, unipolar VAS): 43.4 | Feeling High Emax (median) ([2]; d-MPH HCl 40 mg, unipolar VAS): 36 | Good Effects Emax (mean) ([2]; d-MPH HCl 40 mg, unipolar VAS): 44.9 | Good Effects Emax (median) ([2]; d-MPH HCl 40 mg, unipolar VAS): 42 | TEAE Change in sustained attention, % of subjects [3]: (0.0) % | TEAE Change in sustained attention, n subjects [3]: 0 | TEAE Dry mouth, % of subjects [3]: (0.0) % | TEAE Dry mouth, n subjects [3]: 0 | TEAE Energy increased, % of subjects [3]: (6.5) % | TEAE Energy increased, n subjects [3]: 2 | TEAE Euphoric mood, % of subjects [3]: (12.9) % | TEAE Euphoric mood, n subjects [3]: 4 | TEAE Feeling abnormal, % of subjects [3]: (3.2) % | TEAE Feeling abnormal, n subjects [3]: 1 | TEAE Feeling hot, % of subjects [3]: (6.5) % | TEAE Feeling hot, n subjects [3]: 2 | TEAE Feeling jittery, % of subjects [3]: (0.0) % | TEAE Feeling jittery, n subjects [3]: 0 | TEAE Feeling of relaxation, % of subjects [3]: (0.0) % | TEAE Feeling of relaxation, n subjects [3]: 0 | TEAE Headache, % of subjects [3]: (3.2) % | TEAE Headache, n subjects [3]: 1 | TEAE Heart rate increased, % of subjects [3]: (0.0) % | TEAE Heart rate increased, n subjects [3]: 0 | TEAE Hyperhidrosis (sweaty hands), % of subjects [3]: (3.2) % | TEAE Hyperhidrosis (sweaty hands), n subjects [3]: 1 | TEAE Hypervigilance, % of subjects [3]: (12.9) % | TEAE Hypervigilance, n subjects [3]: 4 | TEAE Nausea, % of subjects [3]: (0.0) % | TEAE Nausea, n subjects [3]: 0 | TEAE Palpitations, % of subjects [3]: (0.0) % | TEAE Palpitations, n subjects [3]: 0 | TEAE Paraesthesia (tingling), % of subjects [3]: (0.0) % | TEAE Paraesthesia (tingling), n subjects [3]: 0 | TEAE Sinus tachycardia, % of subjects [3]: (0.0) % | TEAE Sinus tachycardia, n subjects [3]: 0 | TEAE Somnolence, % of subjects [3]: (3.2) % | TEAE Somnolence, n subjects [3]: 1 | TEAE Tachycardia, % of subjects [3]: (0.0) % | TEAE Tachycardia, n subjects [3]: 0
